Measurements: PMC3723878 (PLoS ONE, 2013)
Numbering of substitutions follows the chain as printed.

Assays:
Experiment in all cases: Saturation binding of ^125I-HEAT
[1] = biological target: T1, human α1A-AR D106A variant (Homo sapiens, UniProt P35348, D106A)
T1 construct: expressed in transfected cells; host or cells: COS-7, transient (calcium phosphate)
T1 sequence (P35348 1-466 D106A): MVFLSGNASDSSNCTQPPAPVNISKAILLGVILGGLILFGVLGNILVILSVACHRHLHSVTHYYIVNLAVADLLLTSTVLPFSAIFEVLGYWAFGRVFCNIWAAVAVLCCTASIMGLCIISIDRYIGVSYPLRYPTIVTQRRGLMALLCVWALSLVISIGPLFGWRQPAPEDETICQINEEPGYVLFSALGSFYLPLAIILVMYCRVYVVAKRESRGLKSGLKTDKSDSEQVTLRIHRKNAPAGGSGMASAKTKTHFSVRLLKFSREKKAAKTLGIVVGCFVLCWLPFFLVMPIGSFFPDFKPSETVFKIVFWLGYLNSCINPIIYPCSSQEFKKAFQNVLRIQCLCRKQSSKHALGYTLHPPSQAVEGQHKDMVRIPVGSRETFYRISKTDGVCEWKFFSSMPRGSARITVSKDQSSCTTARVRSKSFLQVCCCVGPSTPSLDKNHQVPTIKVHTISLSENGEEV
Text: (§1) α1A-AR cDNA inserted in the prK5 vector was kindly provided by Michael Brownstein (Craig Venter Institute, Rockville, MD). Point mutations were introduced into the α1A-AR gene by sense and antisense primers (Sigma-Aldrich, St Quentin-Fallavier, France) containing the desired changes, using the QuikChange Site-Directed Mutagenesis kit. The incorporation of each mutation was verified by DNA sequencing.
(§2) CHO cells stably expressing α1-ARs were kindly provided by Dr. Hervé Paris (INSERM U858, Toulouse, France) and were grown in a 50∶50 Dulbecco's Modified Eagle's Medium (DMEM)/Ham's F12 medium supplemented with 10% (v/v) foetal bovine serum (FBS), glutamine (2 mM), penicillin (100 units/ml) and streptomycin (100 µg/ml) at 37°C with 5% CO2. COS-7 cells were grown at 37°C under 5% CO2 in Dulbecco's modified Eagle's medium containing 10% fetal calf serum, 1% penicillin and 1% glutamine (Sigma-Aldrich, St Quentin-Fallavier, France). At 80% confluence, the cells were transfected using a calcium phosphate precipitation method for transient expression of the genetic construct. After 48 h incubation at 37°C, cells were harvested and the membranes were prepared as follow. Cells were washed with ice-cold phosphate buffer and centrifuged at 1700 g for 10 min (4°C). The pellet was suspended in ice-cold buffer (1 mM EDTA, 25 mM sodium phosphate, and 5 mM MgCl2, pH 7.4) and homogenized using an Potter-Elvehjem homogenizer (Fisher Scientific Labosi, Elancourt, France). The homogenate was centrifuged at 1700 g for 15 min (4°C). The sediment was resuspended in buffer, homogenized, and centrifuged at 1700 g for 15 min (4°C). The combined supernatants were centrifuged at 35,000 g for 30 min (4°C), and the pellet was suspended in the same buffer (0.1 ml/dish). […] Cells were grown in a 50∶50 Dulbecco's Modified Eagle's Medium (DMEM)/Ham's F12 medium supplemented with 10% (v/v) foetal bovine serum (FBS), glutamine (2 mM), penicillin (100 units/ml) and streptomycin (100 µg/ml) at 37°C with 5% CO2. Media was changed every 2–3 days and cells were passaged when confluent with 0.05% trypsin and 0.02% EDTA.
(§3) Binding experiments were performed in a 100 µL reaction mix at room temperature in buffer composed of 50 mM Tris-HCl, pH 7.4, 10 mM MgCl2, 1 g/L BSA. Reactions were stopped by filtration through 96 GF/C filter plates pre-incubated with 0.5% polyethylenimine.
(§4) Binding data were analyzed by nonlinear regression using the KaleidaGraph 4.0 software (Synergy software, Reading, PA). pKD values and Bmax (number of binding sites) were determined by applying a nonlinear regression to data obtained with saturation binding assays. The nonlinear regression used was BS = (Bmax*A)/KD+A, where BS is the specific binding, Bmax the number of binding sites, A the concentration of radioligand, and KD the dissociation constant of the radioligand. Data resulting from competition binding assays were analyzed using the Hill equation for IC50 and curve slope estimations. […] The linear curves were analyzed with IC50 = Ki+(L/KD)*Ki. Dissociation kinetics were analyzed using a simple equation of exponential decay BS * exp (-Koff*t), where BS is the specific binding at time zero and Koff is the dissociation rate constant. Results are expressed as mean ± s.e. mean from n independent experiments. One-way Anova test was used to compare values. A p<0.05 was accepted for statistical significance.

[2] = biological target: T2, human α1A-AR M292A variant (Homo sapiens, UniProt P35348, M292A)
T2 construct: expressed in transfected cells; host or cells: COS-7 (transient, calcium phosphate), membranes
T2 sequence (P35348 1-466 M292A): T1 sequence (P35348 1-466 D106A) with A106D, M292A
Text: as §1, §2, §3, §4

[3] = biological target: T3, human α1A-AR S188A/S192A (SS-AA) variant (Homo sapiens, UniProt P35348, S188A/S192A)
T3 construct: expressed in transfected cells; host or cells: COS-7, transient (calcium phosphate)
T3 sequence (P35348 1-466 S188A/S192A): T1 sequence (P35348 1-466 D106A) with A106D, S188A, S192A
Text: as §1, §2, §3, §4

## O=C1c2ccccc2CCC1CNCCc1ccc(O)c([125I])c1 (stereo not drawn) [125I-HEAT]
[1]; D106A
  ^125I-HEAT Ratio (loss of affinity relative to WT): 1.7
[1]; D106A (3.32), saturation binding, n = 3–6
  ^125I-HEAT pKd: 9.82±0.11
[2]; M292A
  ^125I-HEAT Ratio (loss of affinity relative to WT): 2.2
[2]; M292A (6.55), saturation binding, n = 3–6
  ^125I-HEAT pKd: 9.69±0.09
[3]; SS-AA
  ^125I-HEAT Ratio (loss of affinity relative to WT): 0.78
[3]; SS-AA (5.42–5.46), saturation binding, n = 3–6
  ^125I-HEAT pKd: 10.15±0.01
